From patent US10806794B2, “Protease inhibitors having enhanced features” (priority 2008, dated 2020) come the findings set out here.

Molecules are shown by their SMILES.

A short description of series [1]: Metabolic stability in cryopreserved human hepatocytes. As to conditions: human, cryopreserved human hepatocytes, CLint ± SEM, human hepatocytes, 3 uM, incubated up to one hour. The method, boiled down:
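Test compounds at 0.1 μM or 3 μM incubated with cryopreserved human hepatocytes at 0.5×10^6 viable cells/mL. Sampling up to four hours (0.1 μM) or one or two hours (3 μM), methanol quench, then remaining parent measured by cassette LC-MS/MS.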

Series [2] in a line: Metabolic stability in Sprague-Dawley rat hepatocytes. In kind it is in vitro ADME. Particulars: for hepatocyte CLint at 0.1 μM: read-out: Clint ± SEM.
Series [3] in a line: Microsomal protein binding by equilibrium dialysis. Type of series: in vitro ADME. Particulars: human liver microsomes, read-out: Microsomal Protein Binding Fu ± SD. The method, boiled down: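 Compound at 3 μM final in buffer with or without human liver microsomes, dialysed to equilibrium at 37 °C. Both sides quantified by LC-MS/MS to derive fraction unbound (Fu).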
A general note: In equilibrium dialysis only unbound substance equilibrates across the membrane.

A short description of series [4]: Plasma protein binding by equilibrium dialysis, rat plasma. In kind it is in vitro ADME. As to conditions: read-out: Rat Plasma Protein Binding Fu ± SD. The method, then:
(§1) In assays to estimate binding of test compounds to plasma proteins, test compound solutions (5 μM) are prepared in buffer and species-specific plasma (final DMSO concentration 0.5%). The plasma-containing solution is added to one side of the membrane of an equilibrium dialysis system, and the plasma-free is added to the other side. Dialysis was allowed to reach equilibrium by incubation for two hours at 37° C. The concentration of compound on both sides of the membrane was measured using LC-MS/MS.

Series [5] in a line: Plasma protein binding by equilibrium dialysis, dog plasma. In kind it is in vitro ADME. Particulars: read-out: Dog Plasma Protein Binding Fu ± SD. The method, then: as §1
Series [6] is described as follows: Plasma protein binding by equilibrium dialysis, monkey plasma. Type of series: in vitro ADME. Particulars: read-out: Monkey Plasma Protein Binding Fu ± SD. The procedure:
as §1

A short description of series [7]: Plasma protein binding by equilibrium dialysis, mouse plasma. Type of series: in vitro ADME. Particulars: read-out: Mouse Plasma Protein Binding Fu ± SD. The method, then:
as §1

Another series deals with CYP2C9 (Homo sapiens (Human), UniProt P11712). The series can be described thus: biochemical.
CYP2C9, sequence (P11712 whole entry): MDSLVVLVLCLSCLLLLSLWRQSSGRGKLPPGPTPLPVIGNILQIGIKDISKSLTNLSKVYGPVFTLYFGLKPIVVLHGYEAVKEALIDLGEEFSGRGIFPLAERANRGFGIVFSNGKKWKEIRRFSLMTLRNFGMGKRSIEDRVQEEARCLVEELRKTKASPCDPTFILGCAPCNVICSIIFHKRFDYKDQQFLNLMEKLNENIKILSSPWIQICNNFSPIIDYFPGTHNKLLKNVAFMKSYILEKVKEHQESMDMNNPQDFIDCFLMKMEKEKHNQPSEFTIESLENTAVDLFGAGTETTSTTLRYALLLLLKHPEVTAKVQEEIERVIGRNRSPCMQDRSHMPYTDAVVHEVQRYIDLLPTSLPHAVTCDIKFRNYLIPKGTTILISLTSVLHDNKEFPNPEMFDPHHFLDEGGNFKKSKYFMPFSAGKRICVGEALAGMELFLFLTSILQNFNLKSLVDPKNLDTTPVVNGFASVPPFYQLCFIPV
In a further series the target is CYP3A4 (Homo sapiens (Human), UniProt P08684). The series can be described thus: Metabolic stability in CYP3A4-expressing Bactosomes. In kind it is in vitro ADME. As to conditions: 5 μM. The method, then:
(§2) Compounds were evaluated for their propensity to act as substrates of individual human cytochrome P450 enzymes using a bacterial membrane preparation co-expressing human NADPH-cytochrome P450 reductase with either human CYP3A4 or CYP2D6 (Bactosomes™ Cypex, Ltd., Dundee, UK). In vitro metabolism studies using Bactosomes™ expressing individual human CYP isoforms monitor the extent to which a test compound is metabolized by a single CYP450 enzyme and allow identification of the CYP isoforms that may be responsible for the metabolism of a test compound. Timecourse analyses of test molecules (5 μM) with CYP2D6- or CYP3A4-expressing Bactosomes™ (100 pmol/mL) are performed in buffer (0.1 M phosphate, pH 7.4) in a final reaction volume of 25 μL. […] Reactions are terminated by the addition of methanol (50 μL) containing internal standard at 0, 5, 15, 30, and 45 minutes.

Another series has as its target CYP2D6 (Homo sapiens (Human), UniProt P10635). Put plainly: Metabolic stability in CYP2D6-expressing Bactosomes. Type of series: in vitro ADME. Particulars: 5 μM. The procedure: as §2
Another series relates to CEM-SS cells. The procedure:
To evaluate whether conjugated protease inhibitors retain the ability to protect against HIV-1 infection, CEM-SS cells infected with the RF strain of HIV-1 were treated with test compounds for six days, and then cell viability was monitored using the tetrazolium dye XTT. […] A value for Therapeutic Index (TI) was calculated as TC50/EC50.

Series [8] can be described thus: Metabolic stability in cynomolgus monkey hepatocytes. In kind it is in vitro ADME. As to conditions: cynomolgus monkey.

CYP2D6, sequence (P10635 whole entry): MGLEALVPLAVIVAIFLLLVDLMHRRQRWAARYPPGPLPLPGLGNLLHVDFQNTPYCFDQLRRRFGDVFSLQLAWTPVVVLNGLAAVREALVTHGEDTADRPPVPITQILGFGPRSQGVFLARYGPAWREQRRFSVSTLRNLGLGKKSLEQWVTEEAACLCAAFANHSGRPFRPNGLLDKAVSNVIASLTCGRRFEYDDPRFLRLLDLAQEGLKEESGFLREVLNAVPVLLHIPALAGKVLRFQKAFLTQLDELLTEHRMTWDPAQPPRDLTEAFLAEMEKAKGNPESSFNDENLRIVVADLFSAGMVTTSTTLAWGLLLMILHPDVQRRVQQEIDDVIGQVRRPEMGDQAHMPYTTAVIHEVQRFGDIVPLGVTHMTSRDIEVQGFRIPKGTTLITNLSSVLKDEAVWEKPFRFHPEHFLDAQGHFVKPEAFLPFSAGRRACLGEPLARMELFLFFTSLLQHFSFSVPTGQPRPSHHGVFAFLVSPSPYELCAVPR
CYP3A4, sequence (P08684 whole entry, canonical isoform): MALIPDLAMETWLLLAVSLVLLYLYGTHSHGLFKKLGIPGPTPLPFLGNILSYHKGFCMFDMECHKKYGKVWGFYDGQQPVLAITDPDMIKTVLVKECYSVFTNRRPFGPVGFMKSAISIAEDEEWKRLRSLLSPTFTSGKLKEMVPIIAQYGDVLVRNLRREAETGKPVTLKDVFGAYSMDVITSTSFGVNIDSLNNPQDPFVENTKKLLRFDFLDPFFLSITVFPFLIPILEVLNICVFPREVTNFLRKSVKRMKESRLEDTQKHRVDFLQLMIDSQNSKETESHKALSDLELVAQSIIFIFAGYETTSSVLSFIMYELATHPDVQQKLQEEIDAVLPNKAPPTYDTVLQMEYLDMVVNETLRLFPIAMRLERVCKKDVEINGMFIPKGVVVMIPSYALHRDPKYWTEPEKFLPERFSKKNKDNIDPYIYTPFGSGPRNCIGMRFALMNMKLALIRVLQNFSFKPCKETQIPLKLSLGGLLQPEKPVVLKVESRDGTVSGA

A word on the half-life: it is how long it takes for the measured level to halve. As a reminder, the IC50 is the concentration at which inhibition is half-maximal. The molecule `COC(=O)N[C@H](C(=O)N[C@@H](Cc1ccccc1)[C@@H](O)CN(Cc1ccc(-c2ccccn2)cc1)NC(=O)[C@@H](NC(=O)OC)C(C)(C)C)C(C)(C)C` [Atazanavir, reference compound] yielded a hepatocyte CLint at 3 μM in [1] of 5.15 ± 1.13 µL/min/1e6 cells. In [2], this molecule came in with a half-life at 0.1 μM of 13.7 min. Besides, the hepatocyte CLint at 0.1 μM in [2] amounted to 101 ± 0.00802 µL/min/1e6 cells. In addition, the fraction unbound at 3 μM in [3] is 0.846 ± 0.0308. In addition, the fraction unbound at 2 h, 5 μM came to 0.079 ± 0.00684 in series [4], 0.139 ± 0.0167 in series [5], 0.201 ± 0.0183 in series [6] and 0.0574 ± 0.00286 in series [7]. On CYP2C9, this molecule displayed an IC50 of 10.3 µM.
In the case of `COCCOCCOCCOCCOCCNc1ccc(S(=O)(=O)N(CC(C)C)CC(O)[C@H](Cc2ccccc2)NC(=O)O[C@H]2CO[C@H]3OCC[C@H]32)cc1` (stereo partly shown) [mPEG5-N-Darunavir], the “3A4 t1/2 ± SEM” value at CYP3A4 was 37.4 ± 4.78 min. Also, the “2D6 t1/2 ± SEM” value at CYP2D6 is 49.6 ± 2.63 min.
The matching figures for `COCCOCCOCCOCCOCCOCCOCCNc1ccc(S(=O)(=O)N(CC(C)C)CC(O)[C@H](Cc2ccccc2)NC(=O)O[C@H]2CO[C@H]3OCC[C@H]32)cc1` (stereo partly shown) [mPEG7-N-Darunavir]: 13.9 ± 1.92 min and 29.1 ± 1.95 min.
In the case of `COCCOC(=O)NC(C(=O)NC(Cc1ccccc1)C(O)CN(Cc1ccc(-c2ccccn2)cc1)NC(=O)C(NC(=O)OC)C(C)(C)C)C(C)(C)C` (stereo not shown) [mono-mPEG1-Atazanavir], in the series with CEM-SS cells, the “CEM-SS TC50 ± SD” value was found to be 49.1 ± 6.4 µM.
`COCCOCCOCCOC(=O)NC(C(=O)NC(Cc1ccccc1)C(O)CN(Cc1ccc(-c2ccccn2)cc1)NC(=O)C(NC(=O)OC)C(C)(C)C)C(C)(C)C` (stereo not shown) [mono-mPEG3-Atazanavir, {1-[N′-[2-Hydroxy-3-(2-{2-[2-(2-methoxy-ethoxy)-ethoxy]-ethoxycarbonylamino}-3,3-dimethyl-butyrylamino)-4-phenyl-butyl]-N′-(4-pyridin-2-yl-benzyl)-hydrazinocarbonyl]-2,2-dimethyl-propyl}-carbamic Acid Methyl Ester]: the half-life at 0.1 μM in series [8] turned out to be 99.5 min; in series [2], 117 min. Also, the hepatocyte CLint at 0.1 μM in [8] (read-out: Clint ± SEM) was 13.9 ± 0.904 µL/min/1e6 cells; in [2] it was 11.9 ± 0.00223 µL/min/1e6 cells. Moreover, the fraction unbound at 3 μM in [3] stood at 0.852 ± 0.0495. The fraction unbound at 2 h, 5 μM stood at 0.138 ± 0.0104 in series [4], 0.252 ± 0.0397 in series [5], 0.204 ± 0.196 in series [6] and 0.159 ± 0.0161 in series [7]. This molecule also gave an IC50 on CYP2C9 of 24.6 µM.
Take `COCCOCCOCCOCCOCCOCCOCCOC(=O)NC(C(=O)NC(Cc1ccccc1)C(O)CN(Cc1ccc(-c2ccccn2)cc1)NC(=O)C(NC(=O)OC)C(C)(C)C)C(C)(C)C` (stereo not shown) [mono-mPEG7-Atazanavir]: in the series on CEM-SS cells, the “CEM-SS TC50 ± SD” value is 133.8 ± 24.5 µM.
